Article PMC6874057, “Synthesis of Chalcone Derivatives: Inducing Apoptosis of HepG2 Cells via Regulating Reactive Oxygen Species and Mitochondrial Pathway” (Frontiers in Pharmacology, 2019)

Columns and labels:
Format in all cases: cell-based, human
WI-38 = assay: MTT cell viability assay, normal cell line WI-38; conditions: Homo sapiens, WI-38, 48 h, normal cells, mean ± SE
Protocol: (§1) HeLa, A549, HepG2, HL-60, and WI-38 cell lines were incubated in DMEM solution containing 10% FBS for 48 h. The incubated tumor cells were seeded into 96-well plates (5 × 10^3 cells/well) to make them attach for 12 h. Afterwards, the cells were processed with the various concentrations of the synthetic compounds and 5-FU for 48 h. After removing the cell culture supernatant, 10 µl MTT (5 mg/ml) solution was dripped into the cells to generate a formazan product, which were dissolved by dimethyl sulfoxide (DMSO) 4 h later. Multifunction microplate reader (Bio-Rad Laboratories, Shanghai, China) was adopted to measure the absorbance at the wave length of 490 nm. The IC50 (the lowest drug concentration causing 50% of the tumor cells inhibition) was then calculated using GraphPad Prism Software (version 5.02) and used to indicate the cytotoxic effect of the target compounds on the selected tumor cells.

Hela = assay: MTT cell viability assay, Hela; conditions: Homo sapiens, HeLa, 48 h, mean ± SE
Protocol: as §1

HepG2 cells [1] = assay: Inhibition curve of a14 on HepG2 cells (MTT, 24, 48, 72 h); conditions: in words
Protocol: HepG2 cells (5 × 10^3 cells/well) were seeded into the 96-well plates and kept to attach overnight. […] After the incubation time, 10 µl MTT was added to each well, and the culture was continued in a sterile incubator at 37°C for 4 h under the environment of 5% CO2. Then, the supernatant medium was discarded, and the solid was dissolved in 200 µl DMSO. Then, a multifunction microplate reader (Bio-Rad Laboratories, Shanghai, China) was applied to record the absorbance at 490 nm. Cell growth inhibition rates at different concentrations were calculated and plotted using Origin Pro8 software. Each set of data represented the average value of three independent experiments.

HepG2 cells [2] = assay: Annexin V-Alexa Fluor 647/PI staining, flow cytometry; conditions: 48 h
Protocol: HepG2 cells were seeded into six-well plates (3 × 10^5/well) overnight to allow the cells to grow adherently and then incubated with a14 at the concentrations of 0, 30, 40, 50, 60 or 70 µM for 48 h. In order to assess apoptosis, the double Annexin V-Alexa Fluor 647/PI (Beijing Solarbio Science & Technology Co., Ltd) immunofluorescence labeling method was used. After the cells were collected by centrifugation, 5 µl of Annexin V-Alexa Fluor 647 and 10 µl of PI solution (20 ug/ml) were added to each well. The cells were mixed and incubated at room temperature for 15 min in the dark and then mixed with 400 µl of PBS. Then, a Beckman Coulter flow cytometer (Beckman Coulter, Inc. California) was used to monitor the fluorescence. Ten thousand events were collected for each sample, and the data were analyzed via Flow Jo-V10 software.

A549 = assay: MTT cell viability assay, A549; conditions: Homo sapiens, A549, 48 h, mean ± SE
Protocol: as §1

[3] = tested on: mitochondrial membrane potential in HepG2 cells; assay: Mitochondrial membrane potential by JC-1 probe; conditions: a14 50 µM
Protocol: JC-1 probe was used to detect changes in MMP. Firstly, HepG2 cells (3 × 10^5 cells/well) were seeded into a six-well plate overnight for adherence, and then treated with various concentrations of a14 for 48 h. Next, the cells were treated with JC-1 (2.5 µg/ml) at 37°C for 10 min in the dark and rinsed three times with PBS. Then, the six-well plate was placed under the fluorescence microscope (excitation 480/30× nm, emission 515 nm) to observe the fluorescence color and intensity of JC-1 in the cells. In addition, HepG2 cells (3 × 10^5 cells/well) were inoculated on another six-well plate overnight to allow adherence, and then treated with a14 (50 µM) for 0, 12, 24, 36, and 48 h, adding CCCP (without a14) for 20 min to completely lose the mitochondrial membrane potential. Cells were then incubated with JC-1 (2.5 µg/ml) at 37°C in the dark for 10 min and rinsed with PBS for three times. Fluorescence intensity of residual JC-1 in cells was measured by Beckman Coulter flow cytometer (FITC, 525/40BP). The data obtained was analyzed by CytExpert 2.0 software imbedded in the flow cytometry.

PARP in HepG2 cells = assay: Western blot, PARP and cleaved PARP; conditions: 48 h, compared to the control group; in words
Protocol: (§2) HepG2 cells (3 × 10^5 cells/well) were seeded into a six-well plate overnight for adherence, and then treated with a14 (0, 30, 40, 50, 60, and 70 µM) for 48 h. After the cells were collected by centrifugation, they were lysed with the radio immunoprecipitation assay (RIPA) buffer (high) containing 50 mM Tris (pH = 7.4), 150 mM NaCl, 1% TritonX-100, 1% sodium deoxycholate, 0.1% sodium dodecyl sulfate (SDS), 2 mM sodium pyrophosphate, 25 mM β-glycerophosphate, 1 mM ethylenediaminetetraacetic acid (EDTA), 1 mM Na3VO4, and 0.5 ug/ml leupeptin (Beijing Solarbio Science & Technology Co., Ltd.).The extract was then centrifuged at 12,000 rpm for 30 min and the total protein concentration was quantified using the BCA kit (Beijing Solarbio Science & Technology Co., Ltd.). The protein extracts were mixed with the SDS-PAGE protein loading buffer (Beijing Solarbio Science & Technology Co., Ltd.) and then boiled in 100°C water bath for 10 min. The gel was gelatinized using an SDS Gel Kit (Beijing Solarbio Science & Technology Co., Ltd.) and protein extracts were separated by protein SDS-polyacrylamide gel electrophoresis and transferred to Immobilon-NC Membrane (Beijing Solarbio Science & Technology Co., Ltd.). […]

Bcl-2 in HepG2 cells = assay: Western blot, Bcl-2; conditions: different concentrations, 48 h, dose-dependent; in words
Protocol: as §2

## COc1cc(/C=C/C(=O)c2ccc(O)c(C(N)=O)c2)cc(OC)c1OC [a14]
WI-38
  IC50: 121.3 ± 0.87 µM
Hela
  IC50: 23.3 ± 2.35 µM
HepG2 cells [1]; 24, 48, 72 h, different concentrations
  inhibitory activities on HepG2 cells: dose- and time-dependent manner
HepG2 cells [1]; action time 48 or 72 h
  growth inhibition effect on HepG2 cells: significantly improved
HepG2 cells [1]; action time less than 24 h
  cytotoxic effect on HepG2 cells: relatively weak
HepG2 cells [2]; a14 30 µM
  Early apoptosis: 3.10%
  Late apoptosis: 9.45%
HepG2 cells [2]; a14 50 µM
  increase of percentage of early apoptosis compared with the untreated group: 28.35%
  increase of percentage of late apoptosis compared with the untreated group: 13.51%
HepG2 cells [2]; a14 70 µM
  Early apoptosis: 28.62%
  Late apoptosis: 32.89%
A549
  IC50: 36.7 ± 1.08 µM
[3]; 48 h (untreated 50.08%)
  JC-1 (FITC), right of the gate line (green fluorescence): 91.94%
[3]; 48 h, in words
  JC-1 fluorescence colour under the fluorescence microscope: almost all cells had shown green fluorescence
PARP in HepG2 cells
  expression level of PARP: decrease
  level of cleaved PARP proteins: increase
Bcl-2 in HepG2 cells
  expression of anti-apoptotic proteins (Bcl-2): down-regulated
